In ChEMBL document CHEMBL5357027, “Annonaceous Acetogenins Synergistically Inhibit Hepatocellular Carcinoma with Sorafenib” (J Nat Prod, 2024):
Activity calls are given as the source filed them. No cut-off for these calls is given here.

Columns and labels:
HCCLM3 [1] = assay: Induction of apoptosis in human HCCLM3 cells assessed as viable cells at 4 uM incubated for 48 hrs by Annexin V/FITC-PI staining based flow cytometry (reference value: 96.55%); assay type: functional; settings: read-out: Activity
HCCLM3 [2] = assay: Induction of apoptosis in human HCCLM3 cells assessed as necrotic cells at 4 uM incubated for 48 hrs by Annexin V/FITC-PI staining based flow cytometry (reference value: 3.33%); assay type: functional
MHCC97H [3] = assay: Inhibition of mitochondrial function in human MHCC97H cells assessed as reduction in ATP production at 16 uM incubated for 48 hrs relative to control; assay type: functional; set-up: scale not given: the % may be the effect or the level left
HCCLM3 [4] = assay: Induction of apoptosis in human HCCLM3 cells assessed as late apoptotic cells at 4 uM incubated for 48 hrs by Annexin V/FITC-PI staining based flow cytometry (reference value: 0.07%); assay type: functional
HCCLM3 [5] = assay: Induction of apoptosis in human HCCLM3 cells assessed as early apoptotic cells at 4 uM incubated for 48 hrs by Annexin V/FITC-PI staining based flow cytometry (reference value: 0.05%); assay type: functional
Huh-7 [6] = assay: Inhibition of mitochondrial function in human Huh-7 cells assessed as reduction in ATP production at 16 uM incubated for 48 hrs relative to control; assay type: functional; set-up: scale not given: the % may be the effect or the level left
HCCLM3 [7] = assay: Inhibition of mitochondrial function in human HCCLM3 cells assessed as reduction in ATP production at 16 uM incubated for 48 hrs relative to control; assay type: functional; set-up: scale not given: the % may be the effect or the level left
HepG2 [8] = assay: Inhibition of mitochondrial function in human HepG2 cells assessed as reduction in ATP production at 16 uM incubated for 48 hrs relative to control; assay type: functional; set-up: scale not given: the % may be the effect or the level left
HepG2 [9] = assay: Cytotoxicity against human HepG2 cells assessed as cell growth inhibition incubated for 48 hrs by MTT assay; assay type: functional, cell-based; settings: HepG2, 48 h
HepG2 [10] = assay: Synergistic cytotoxicity against human HepG2 cells assessed as cell growth inhibition by measuring synergy score at 1 to 16 uM incubated for 48 hrs in presence of sorafenib at 1 to 16 uM by MTT assay; assay type: functional; settings: dose 1-16 µM
Huh-7 [11] = assay: Synergistic cytotoxicity against human Huh-7 cells assessed as cell growth inhibition by measuring synergy score at 1 to 16 uM incubated for 48 hrs in presence of sorafenib at 1 to 16 uM by MTT assay; assay type: functional; settings: dose 1-16 µM
MHCC97H [12] = assay: Cytotoxicity against human MHCC97H cells assessed as cell growth inhibition incubated for 48 hrs by MTT assay; assay type: functional, cell-based
HCCLM3 [13] = assay: Cytotoxicity against human HCCLM3 cells assessed as cell growth inhibition incubated for 48 hrs by MTT assay; assay type: functional, cell-based; settings: HCCLM3, 48 h
MHCC97H [14] = assay: Synergistic cytotoxicity against human MHCC97H cells assessed as cell growth inhibition by measuring synergy score at 1 to 16 uM incubated for 48 hrs in presence of sorafenib at 1 to 16 uM by MTT assay; assay type: functional; settings: dose 1-16 µM
Huh-7 [15] = assay: Cytotoxicity against human Huh-7 cells assessed as cell growth inhibition incubated for 48 hrs by MTT assay; assay type: functional, cell-based; settings: Huh-7, 48 h
HCCLM3 [16] = assay: Synergistic cytotoxicity against human HCCLM3 cells assessed as cell growth inhibition by measuring synergy score at 1 to 16 uM incubated for 48 hrs in presence of sorafenib at 1 to 16 uM by MTT assay; assay type: functional; settings: dose 1-16 µM
HCCLM3 [17] = assay: Inhibition of mitochondrial respiratory chain complex I in human HCCLM3 incubated for 24 hrs; assay type: cell-based
HCCLM3 [18] = assay: Synergistic antitumor activity against human HCCLM3 cells xenografted in nude mouse assessed as induction of aPOptosis in tumor at 4 to 8 mg/kg, PO in presence of 32 mg/kg sorafenib and measured for 21 days by tunel staining based immunohistochemical analysis; assay type: functional, organism-based; settings: dose 4-8 mg/kg, time 21.0 day
MHCC97H [19] = assay: Inhibition of mitochondrial function in human MHCC97H cells assessed as reduction in ATP production at 8 uM incubated for 48 hrs; assay type: functional, cell-based
HepG2 [20] = assay: Synergistic inhibition of mitochondrial function in human HepG2 cells assessed as reduction in intracellular ATP level at 8 uM incubated for 48 hrs in presence of 16 uM sorafenib; assay type: functional, cell-based
[21] = Toxicity in nude mouse xenografted with human HCCLM3 cells assessed as liver damage at 4 to 8 mg/kg, PO measured for 21 days by H and E staining based analysis; assay type: organism-based; settings: in vivo, 504 h, dose 4-8 mg/kg, time 21 day
HCCLM3 [22] = assay: Induction of apoptosis in human HCCLM3 cells assessed as viable cells at 4 uM incubated for 48 hrs in presence of 4uM sorafenib by Annexin V/FITC-PI staining based flow cytometry (reference value: 96.55%); assay type: functional; settings: read-out: Activity
[23] = Toxicity in nude mouse xenografted with human HCCLM3 cells assessed as heart damage at 1 to 8 mg/kg, PO in presence of sorafenib measured for 21 days by H and E staining based; assay type: organism-based; settings: in vivo, 504 h, dose 1-8 mg/kg, time 21 day
HCCLM3 [24] = assay: Induction of apoptosis in human HCCLM3 cells assessed as early apoptotic cells at 4 uM incubated for 48 hrs in presence of 4uM sorafenib by Annexin V/FITC-PI staining based flow cytometry (reference value: 0.05%); assay type: functional
HCCLM3 [25] = assay: Synergistic antitumor activity against human HCCLM3 cells xenografted in nude mouse assessed as decrease in tumor volume at 4 to 8 mg/kg, PO in presence of 32 mg/kg sorafenib measured every other day for 21 days; assay type: functional, organism-based; settings: dose 4-8 mg/kg, time 21.0 day
[26] = Toxicity in nude mouse xenografted with human HCCLM3 cells assessed as spleen damage at 1 to 8 mg/kg, PO in presence of sorafenib measured for 21 days by H and E staining based analysis; assay type: organism-based; settings: in vivo, 504 h, dose 1-8 mg/kg, time 21 day
HCCLM3 [27] = assay: Induction of apoptosis in human HCCLM3 cells assessed as necrotic cells at 4 uM incubated for 48 hrs in presence of 4uM sorafenib by Annexin V/FITC-PI staining based flow cytometry (reference value: 3.33%); assay type: functional
Huh-7 [28] = assay: Synergistic inhibition of mitochondrial function in human Huh-7 cells assessed as reduction in intracellular ATP level at 8 uM incubated for 48 hrs in presence of 16 uM sorafenib; assay type: functional, cell-based
[29] = Toxicity in nude mouse xenografted with human HCCLM3 cells assessed as kidney damage at 1 to 8 mg/kg, PO in presence of sorafenib measured for 21 days by H and E staining based analysis; assay type: organism-based; settings: in vivo, 504 h, dose 1-8 mg/kg, time 21 day
[30] = Toxicity in nude mouse xenografted with human HCCLM3 cells assessed as liver damage at 1 to 8 mg/kg, PO in presence of sorafenib measured for 21 days by H and E staining based analysis; assay type: organism-based; settings: in vivo, 504 h, dose 1-8 mg/kg, time 21 day
HCCLM3 [31] = assay: Induction of apoptosis in human HCCLM3 cells assessed as late apoptotic cells at 4 uM incubated for 48 hrs in presence of 4uM sorafenib by Annexin V/FITC-PI staining based flow cytometry (reference value: 0.07%); assay type: functional
MHCC97H [32] = assay: Synergistic inhibition of mitochondrial function in human MHCC97H cells assessed as reduction in intracellular ATP level at 8 uM incubated for 48 hrs in presence of 16 uM sorafenib; assay type: functional, cell-based
HCCLM3 [33] = assay: Antitumor activity against human HCCLM3 cells xenografted in nude mouse assessed as decrease in tumor volume at 4 to 8 mg/kg, PO measured every other day for 21 days; assay type: functional, organism-based; settings: dose 4-8 mg/kg, time 21.0 day
Huh-7 [34] = assay: Inhibition of mitochondrial function in human Huh-7 cells assessed as reduction in ATP production at 8 uM incubated for 48 hrs; assay type: functional, cell-based
[35] = Toxicity in nude mouse xenografted with human HCCLM3 cells assessed as heart damage at 4 to 8 mg/kg, PO measured for 21 days by H and E staining based; assay type: organism-based; settings: in vivo, 504 h, dose 4-8 mg/kg, time 21 day
HepG2 [36] = assay: Inhibition of mitochondrial function in human HepG2 cells assessed as reduction in ATP production at 8 uM incubated for 48 hrs; assay type: functional, cell-based
[37] = Toxicity in nude mouse xenografted with human HCCLM3 cells assessed as kidney damage at 4 to 8 mg/kg, PO measured for 21 days by H and E staining based analysis; assay type: organism-based; settings: in vivo, 504 h, dose 4-8 mg/kg, time 21 day
HCCLM3 [38] = assay: Synergistic inhibition of mitochondrial function in human HCCLM3 cells assessed as reduction in intracellular ATP level at 8 uM incubated for 48 hrs in presence of 16 uM sorafenib; assay type: functional, cell-based
[39] = Toxicity in nude mouse xenografted with human HCCLM3 cells assessed as lung damage at 1 to 8 mg/kg, PO in presence of sorafenib measured for 21 days by H and E staining based analysis; assay type: organism-based; settings: in vivo, 504 h, dose 1-8 mg/kg, time 21 day
HCCLM3 [40] = assay: Synergistic antitumor activity against human HCCLM3 cells xenografted in nude mouse assessed as decrease in tumor weight at 4 to 8 mg/kg, PO in presence of 32 mg/kg sorafenib measured every other day for 21 days; assay type: functional, organism-based; settings: dose 4-8 mg/kg, time 21.0 day
[41] = Toxicity in nude mouse xenografted with human HCCLM3 cells assessed as lung damage at 4 to 8 mg/kg, PO measured for 21 days by H and E staining based analysis; assay type: organism-based; settings: in vivo, 504 h, dose 4-8 mg/kg, time 21 day
HCCLM3 [42] = assay: Inhibition of mitochondrial function in human HCCLM3 cells assessed as reduction in ATP production at 8 uM incubated for 48 hrs; assay type: functional, cell-based
HCCLM3 [43] = assay: Induction of apoptosis in human HCCLM3 cells assessed as apoptotic ratio at 4 uM incubated for 48 hrs in presence of 4uM sorafenib by Annexin V/FITC-PI staining based flow cytometry relative to control; assay type: functional
[44] = Toxicity in nude mouse xenografted with human HCCLM3 cells assessed as decrease in body weight at 4 to 8 mg/kg, PO measured every other day for 21 days; assay type: organism-based; settings: in vivo, 504 h, dose 4-8 mg/kg, time 21 day
[45] = Toxicity in nude mouse xenografted with human HCCLM3 cells assessed as spleen damage at 4 to 8 mg/kg, PO measured for 21 days by H and E staining based analysis; assay type: organism-based; settings: in vivo, 504 h, dose 4-8 mg/kg, time 21 day
[46] = Toxicity in nude mouse xenografted with human HCCLM3 cells assessed as decrease in body weight at 1 to 8 mg/kg, PO in presence of sorafenib measured every other day for 21 days; assay type: organism-based; settings: in vivo, 504 h, dose 1-8 mg/kg, time 21 day

CNC(=O)c1cc(Oc2ccc(NC(=O)Nc3ccc(Cl)c(C(F)(F)F)c3)cc2)ccn1 [SORAFENIB]
viability at 4 µM (HCCLM3 [1]): 94.2%
Activity (HCCLM3 [2]): 1.57%
Activity (MHCC97H [3]): 54.4%
Activity (HCCLM3 [4]): 0.67%
Activity (HCCLM3 [5]): 3.59%
Activity (Huh-7 [6]): 41.1%
Activity (HCCLM3 [7]): 77.4%
Activity (HepG2 [8]): 69.5%

CCCCCCCCCCCC[C@@H](O)[C@H]1CC[C@H]([C@H](O)CCCCC(=O)CCCCC[C@@H](O)CC2=C[C@H](C)OC2=O)O1 [ANNONACINONE]
IC50 (HepG2 [9]): 15.5 µM
Activity (HepG2 [10]): 3.4
Activity (Huh-7 [11]): 3.4
IC50 (MHCC97H [12]): 15.5 µM
IC50 (HCCLM3 [13]): 15.5 µM
Activity (MHCC97H [14]): 3.4
IC50 (Huh-7 [15]): 15.5 µM
Activity (HCCLM3 [16]): 3.4
inhibition (HCCLM3 [17]): Active

CCCCCCCCCCCC[C@@H](O)[C@H]1CC[C@H]([C@H](O)CCCC[C@@H](O)CCCCC[C@@H](O)CC2=C[C@H](C)OC2=O)O1
viability at 4 µM (HCCLM3 [1]): 93.6%
Activity (HCCLM3 [18]): Active
inhibition (MHCC97H [19]): Active
inhibition (HepG2 [20]): Active
Activity [21]: Non-Toxic
viability at 4 µM (HCCLM3 [22]): 73.8%
Activity [23]: Non-Toxic
Activity (HCCLM3 [24]): 17.91%
Activity (HCCLM3 [2]): 3.24%
Activity (HCCLM3 [25]): Active
Activity [26]: Non-Toxic
Activity (HCCLM3 [27]): 5.02%
inhibition (Huh-7 [28]): Active
Activity [29]: Non-Toxic
IC50 (HepG2 [9]): 7.4 µM
Activity [30]: Non-Toxic
Activity (HepG2 [10]): 4.1
Activity (Huh-7 [11]): 1.6
Activity (HCCLM3 [31]): 3.24%
IC50 (MHCC97H [12]): 7.4 µM
inhibition (MHCC97H [32]): Active
Activity (HCCLM3 [33]): Active
IC50 (HCCLM3 [13]): 7.4 µM
inhibition (Huh-7 [34]): Active
Activity [35]: Non-Toxic
Activity (MHCC97H [14]): 0.7
Activity (HCCLM3 [4]): 1.46%
inhibition (HepG2 [36]): Active
Activity [37]: Non-Toxic
IC50 (Huh-7 [15]): 7.4 µM
Activity (HCCLM3 [5]): 1.7%
Activity (HCCLM3 [38]): Active
Activity [39]: Non-Toxic
Activity (HCCLM3 [40]): Active
Activity [41]: Non-Toxic
Activity (HCCLM3 [16]): 12.1
inhibition (HCCLM3 [42]): Active
Activity (HCCLM3 [43]): 18.5%
inhibition (HCCLM3 [17]): Active
Activity [44]: Non-Toxic
Activity [45]: Non-Toxic
Activity [46]: Non-Toxic

CCCCCCCCCCCC[C@H](O)[C@@H]1CC[C@H]([C@H](O)CCCCC(=O)CCCCC[C@@H](O)CC2=C[C@H](C)OC2=O)O1
IC50 (HepG2 [9]): 15 µM
Activity (HepG2 [10]): 0.7
Activity (Huh-7 [11]): 0.7
IC50 (MHCC97H [12]): 15 µM
IC50 (HCCLM3 [13]): 15 µM
Activity (MHCC97H [14]): 0.7
IC50 (Huh-7 [15]): 15 µM
Activity (HCCLM3 [16]): 0.7
inhibition (HCCLM3 [17]): Active
